From US8394431B2, “Composition of extracts from plants and the use thereof in prophylaxis or treatment of metabolism disorder of blood lipid” (priority 2008, dated 2013)

What was measured:
HMG-CoA reductase = molecular target: T1, HMG-CoA reductase (Rattus norvegicus, UniProt P51639); assay: Inhibition of HMG-CoA reductase activity (rat liver cell microsomes); format: biochemical, rats
T1 construct: The rats liver cells microsomes were prepared into HMG-CoA reductase solution; from tissue; host or cells: rat liver cell microsomes
T1 sequence (P51639 1-887): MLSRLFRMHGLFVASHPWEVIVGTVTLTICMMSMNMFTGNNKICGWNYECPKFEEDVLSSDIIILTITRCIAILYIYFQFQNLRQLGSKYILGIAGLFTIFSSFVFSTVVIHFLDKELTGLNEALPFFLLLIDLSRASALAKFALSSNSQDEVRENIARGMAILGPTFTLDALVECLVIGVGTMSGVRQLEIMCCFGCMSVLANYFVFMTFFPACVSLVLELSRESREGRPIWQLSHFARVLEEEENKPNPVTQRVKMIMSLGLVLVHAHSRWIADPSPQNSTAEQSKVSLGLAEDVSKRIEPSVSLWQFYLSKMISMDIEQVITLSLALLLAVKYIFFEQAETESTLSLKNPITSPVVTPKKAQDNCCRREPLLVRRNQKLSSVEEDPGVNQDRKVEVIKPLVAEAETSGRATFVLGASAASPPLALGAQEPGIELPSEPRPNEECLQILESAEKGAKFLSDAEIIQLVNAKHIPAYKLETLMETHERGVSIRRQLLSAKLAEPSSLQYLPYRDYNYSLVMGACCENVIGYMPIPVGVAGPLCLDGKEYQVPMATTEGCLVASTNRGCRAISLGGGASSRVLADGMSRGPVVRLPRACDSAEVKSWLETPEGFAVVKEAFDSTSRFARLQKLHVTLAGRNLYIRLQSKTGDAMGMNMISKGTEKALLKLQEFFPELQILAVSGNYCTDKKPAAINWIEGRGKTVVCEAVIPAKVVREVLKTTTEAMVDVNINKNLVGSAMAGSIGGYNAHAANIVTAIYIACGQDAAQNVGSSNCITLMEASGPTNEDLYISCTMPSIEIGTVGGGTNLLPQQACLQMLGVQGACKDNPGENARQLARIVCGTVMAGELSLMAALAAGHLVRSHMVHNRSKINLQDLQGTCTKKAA
Protocol: Test the effects of various FTZEC conbination in vitro experiment on inhibiting HMGCoA reductase activity and calculate the IC50 of the composition of extracts from plants on inhibition of HMGCoA reductase and compare with pravastatin.
The rats liver cells microsomes were prepared into HMG-CoA reductase solution. The activities of the HMG-CoA reductase were determined by literature method. The enzyme activity in each group was respectively determined to calculate the IC50 (μg/ml) of FTZEC on HMG-CoA reductase activity.

[1] = test system: Dietary hyperlipidemia New-Zealand female rabbits; assay: Lipid metabolism of hyperlipidemia New-Zealand female rabbit model; format: in vivo; conditions: hyperlipidemia unsexed female rabbits, dose 3 mg/kg, gavage, 12 weeks; for HDL-C: model 0.871 ± 0.30; for TG: model 3.98 ± 0.79; for LDL-C: model 11.63 ± 2.30; for TC: model 33.92 ± 3.49; for Ox-LDL: plasma ELISA, model 1.63 ± 0.30
Description: Purebred New Zealand female rabbits were unsexed and fed with 0.5% cholesterol diet, and intravenously injected with bovine serum albumin to establish the model. The experimental animals were 49 New Zealand Angora purebred female rabbits, 1.8-2.2 kg, 3-4 months old which were provided by Guangdong Province Experimental Animal Center. […] In the sham-operated group, the sham operation was confirmed (cutting a small piece of fat tissues around the ovary), without removing the ovaries. The rabbits were given ordinary commercial feed (120-150 g/d) after surgery. […] In the compound Fufang tiaozhi FTZ group (equal to five times of clinical adult daily dose) and other administration groups, the rabbits were administrated with drugs by gavage. The control group and the model group were fed and administrated by gavage with same volume of normal saline. The body weights were examined at 12 weeks of the experiment. 2 ml blood was taken by the ear artery for blood lipid measurement. The rabbits were fasted for 16 h before each blood sampling. […] The total cholesterol, triglyceride, HDLC and LDLC were detected by automatic biochemical analyzer and the steps were carried out according to the kit instructions. The OX-LDL in plasma was measured by ELISA, according to kit instructions.

[2] = test system: hypercholesterolemic patients; assay: Clinical validation in hyperlipemia patients: blood lipids and efficacy rate; format: in vivo, human; conditions: patients n = 30, one tablet twice a day, 2 months
Protocol: 60 cases with hyperlipemia treated by FTZEC were analyzed, using the tablets obtained in Experiment 1. The experiment was confirmed according to Principles for Clinical Study of New Chinese Medicines in hyperlipemia, Ministry of Health of the People's Republic of China. 60 cases were in-patients or out-patients with hyperlipidemia diagnosed according to diagnostic criteria (1985), of which 40 cases were outpatients and 20 cases were in-patients; the patients were randomly divided into two groups, the treatment group and the control group. […] All patients accepted hyperlipidemia education, diet control, and regular exercise. […] 5.2 Efficiency standard of blood lipid Clinical control: the experimental examination returned to normal. Marked effective: the blood lipid detection achieved any one of the following indexes: […] Effective: the blood lipid detection achieved any one of the following indexes: […] Note: when determine the efficacy of the complicated hyperlipidemia, if the two indicators were not consistent, the lower efficacy was determined as the final result.

[3] = test system: L-O2 Lipoprotein Lipase of Liver Cells (LPL); assay: LPL activity in L-O2 hepatocytes (colorimetric kit); format: cell-based, human; conditions: 50.0 μg/ml, normal 12.63 ± 0.67
Protocol: The L-O2 human normal liver cells were cultured in routine way, various concentrations of FTZCE were respectively added after cells fusion, continuously cultured the cells for a certain time followed by collecting cells to prepare cell homogenates. Using LPL/HL detection kit (Nanjing Jiancheng Biotechnology Research Institute), the LPL/HL activity was detected by colorimetric method to research the effects of various composition of extracts from plants conbination on LPL activity and compare the enzyme activity of hepatocyte LPL/HL under the action of different concentrations of FTZEC. The gene expressions of hepatocyte LPL/HL were determined by RT-PCR method to observe the affects of FTZEC on the hepatocyte LPL/HL gene expression.

[4] = test system: Dietary hyperlipidemia rats; assay: Blood lipid of dietary hyperlipemia model in rats; format: in vivo, SD rats; conditions: serum, dose 3 mg/kg, 8 weeks; for HDL-C: high lipid control 0.71 ± 0.30; for LDL-C: high lipid control 1.43 ± 0.30; for TC: high lipid control 3.32 ± 0.49
Protocol: Observe the effects of different doses of FTZEC on the serum TC, TG, LDL-C, and HDL-C of hyperlipemia rats.
In addition to ordinary feed in control group, other groups were given high fat emulsion in 10 ml/kg every morning by gavage beside the ordinary feed, and given corresponding drugs 4 hours after feeding, in which the normal group and the model groups were given equal amount of normal saline, administrated for continuous 8 weeks. These animals were fasted for 1 d, when water was given, in the next morning, the blood was taken from orbital veniplex after the last administration, centrifuged and separated the serum to test the TC, TG, HDL-C, LDL-C respectively.

Compound	IC50 (HMG-CoA reductase)	HDL-C [1]	TG [1]	LDL-C [1]	TC [1]	Ox-LDL [1]	Effective Cases [2]	Effective Rate % [2]	Invalid Cases [2]	Invalid Rate % [2]	Marked effective Cases [2]	Marked effective Rate % [2]	Total effective rate % [2]	LPL activity [3]	HDL-C [4]	LDL-C [4]	TC [4]	TG ([4]; high lipid control 3.28 ± 0.79)
CC[C@H](C)C(=O)O[C@H]1C[C@H](O)C=C2C=C[C@H](C)[C@H](CC[C@@H](O)C[C@@H](O)CC(=O)O)[C@H]21 [Pravastatin]	4.36 µM	1.36 ± 0.28 mmol/L	2.08 ± 0.82 mmol/L	10.29 ± 2.27 mmol/L	12.69 ± 3.62 mmol/L	1.29 ± 0.27 mmol/L	15	50.0%	4	13.3%	11	36.7%	86.7%	–	–	–	–	–
CC(C)OC(=O)C(C)(C)Oc1ccc(C(=O)c2ccc(Cl)cc2)cc1 [Fenofibrate]	–	1.06 ± 0.26 mmol/L	1.88 ± 0.82 mmol/L	4.99 ± 2.25 mmol/L	19.89 ± 2.62 mmol/L	0.99 ± 0.25 mmol/L	–	–	–	–	–	–	–	16.95 ± 3.02 g FFA/mL supernatant · h	1.22 ± 0.43 mmol/L	0.89 ± 0.42 mmol/L	2.85 ± 0.45 mmol/L	–
CC[C@H](C)C(=O)O[C@H]1C[C@@H](C)C=C2C=C[C@H](C)[C@H](CC[C@@H]3C[C@@H](O)CC(=O)O3)[C@H]21 [Lovastatin]	–	–	–	–	–	–	–	–	–	–	–	–	–	–	0.96 ± 0.26 mmol/L	0.91 ± 0.25 mmol/L	2.29 ± 0.32 mmol/L	2.08 ± 0.82 mmol/L
